Results taken from patent US6242481A, “Methods for the inhibition of angiogenesis with arglabin” (priority 1999, dated 2001).
Values after ≈ are worked out from the molar mass of the structure shown.

Assays:
cells [1] = conditions: cited from earlier work
[2] = test system: tumor growth and metastases; conditions: cited from earlier work
[3] = test system: vascular endothelial cell; conditions: cited from earlier work
[4] = test system: corneal neovascularization (corneal micropockets); assay: neovascularization experiment using corneal micropockets in mice; type: in vivo; conditions: mouse corneal micropockets; Table 1
Experimental: (§1) Pellets for implantation into rabbit corneas were made by mixing 110 μl of saline containing 12 μg of recombinant bFGF (Takeda Pharmaceuticals-Japan) with 40 mg of sucralfate (Bukh Meditec-Denmark); this suspension was added to 80 μl of 12% hydron (Interferon Sciences) in ethanol. 10 μl aliquots of this mixture was then pipetted onto teflon pegs and allowed to dry producing approximately 17 pellets. A pellet was implanted into corneal micropockets of each eye of an anesthetized female New Zealand white rabbit, 2 mm from the limbus followed by topical application of erythromycin ointment onto the surface of the cornea. The animals were fed daily from 2 days post-implantation by gastric lavage with cytochalasin E or the aldehyde methyl ester derivative of cytochalasin E suspended in 0.5% carboxymethyl cellulose or 0.5% carboxymethyl cellulose alone. The animals were examined with a slit lamp every other day in a masked manner by the same corneal specialist. The area of corneal neovascularization was determined by measuring with a reticule the vessel length (L) from the limbus and the number of clock hours (C) of limbus involved. A formula was used to determine the area of a circular band segment: C/12*3.1416 [r^2 -(r-L)^2 ] where r=6 mm the measured radius of the rabbit cornea.
(§2) The neovascularization experiment described in Example 2 was repeated using the corneal micropockets in mice. The compounds tested were cytochalasin E, astaphiatin, arglabin, epoxycytochalasin-H, ozonolyzed cytochalasin-E, and precursor cytochalasin-E. The results of these compound's ability to inhibit angiogenesis are shown in Table 1.

[5] = type: in vivo; conditions: mice; Table 1
Description: as §2

[6] = test system: Bovine capillary endothelial (BCE) cells; assay: inhibition of bovine capillary endothelial cell proliferation (BCE), compared to NIH3T3 fibroblasts; type: cell-based; conditions: for less active (inhibition of endothelial cell proliferation): relative to cytochalasin E
Experimental: (§3) Bovine capillary endothelial (BCE) cells and Swiss mouse embryo fibroblast cells (NIH3T3) were isolated as previously described (Folkman, , et al., Proc. Nat. Acad. Sci USA., 76:5217-21(1979)) and maintained in DMEM supplemented with 10% heat-inactivated bovine calf serum (BCS), antibiotics, and 3 ng/ml recombinant human bFGF (Scios Nova, Mountainview,Calif.). Monolayers of the cells growing in 6-well plates were dispersed in a 0.05% trypsin solution. The cells were re-suspended with DMEM containing 10% BCS. Approximately 12,500 cells in 0.5 ml were added to each well of gelatinized 24-well tissue culture plates and incubated at 37° C. (in 10% CO2) for 24 hours. The medium was replaced with […] of fresh DMEM containing 5% BCS. Samples of cytochalasin E, cytochalasin A, and cytochalasin H were added to each well in triplicate. After 30 minutes of incubation, bFGF was added to a final concentration of 1 ng/ml. After 72 hours of incubation, cells were trypsinized, re-suspended in Hematall (Fisher Scientific, Pittsburg, Pa.) and counted with a Coulter counter.
FIG. 2 is a graph showing the inhibition of bovine capillary endothelial cell proliferation (BCE) (squares) compared to Swiss mouse embryo fibroblast cells (NIH3T3). […] The ordinate measures drug concentration in grams per milliliter.

[7] = test system: basic fibroblast growth factor (bFGF) driven corneal neovascularization; assay: rabbit cornea assay, bFGF driven corneal neovascularization; type: in vivo, rabbit (New Zealand white); conditions: 2 mg/kg/day, text says subcutaneously administered (method: gastric lavage)
Experimental: as §1

Lewis lung carcinoma [8] = assay: Lewis lung carcinoma tumor growth (Example 5); type: in vivo, mice (C57BI6/J); conditions: 2 mg/kg/day
Experimental: (§4) Syngeneic C57BI6/J six-week-old male mice were injected (subcutaneous dorsum) with 1×10^6 tumor cells. Visible tumors first appeared after 3-4 days. When tumors were approximately 1500 mm^3 in size, mice were randomized into two groups. The primary tumor was completely excised in the first group and left intact in the second group after a sham operation. Although tumors from 500 mm^3 to 3000 mm^3 inhibited growth of metastases, 1500 mm^3 was the largest primary tumor that could be safely resected with high survival and no local recurrence.
This experimental model gave reproducible data and the experiment described is reproducible. This tumor is labeled "Lewis lung carcinoma--low metastatic" (LLC-Low).

Lewis lung carcinoma [9] = assay: Lewis lung experiment, inhibition of tumor growth (Example 6); type: in vivo, mice (C57BI6/J); conditions: 2.0 mg/kg qd (printed 'od' for methanolyzed compound)
Experimental: as §4
The Lewis lung experiment of Example 5 was repeated using cytochalasin E and methanolyzed cytochalasin E. The results of this experiment are presented in the table below.

cells [10] = conditions: cited from earlier work; remark: listed apart in the source
[11] = test system: Bovine capillary endothelial (BCE) cells; assay: inhibition of bovine capillary endothelial cell proliferation (BCE), cytochalasin E vs epoxycytochalasin J; type: cell-based; conditions: compared with cytochalasin E; FIG. 3
Experimental: as §3, with “(BCE)” for “(BCE) cells and Swiss mouse embryo fibroblast cells (NIH3T3)”, “76:5217-21 (1979))” for “76:5217-21(1979))”, “Mountainview, Calif.).” for “Mountainview,Calif.).”, “E” for “E, cytochalasin A,”, “epoxycytochalasin J” for “cytochalasin H”
The ordinate measures drug concentration in grams per milliliter.

tumors cells = conditions: cited from earlier work
[12] = test system: tumor-induced angiogenesis in mouse dermis; conditions: cited from earlier work

For `C=C1C(C)C2C(Cc3ccccc3)NC(=O)C23OC(=O)/C=C/C(O)CCCC(C)C/C=C/C3C1O` (single isomer, unassigned) [cytochalasin B], the “changes in cell structure” value (cells [1]) is listed as “a number of morphological changes in cell structure”.
For `CO[C@@H]1[C@H](OC(=O)NC(=O)CCl)CC[C@]2(CO2)[C@H]1[C@@]1(C)O[C@@H]1CC=C(C)C` [AGM-1470], the “inhibition of tumor growth and metastases in vivo” value [2] is given as “inhibits tumor growth and metastases in vivo”, the “activity in inhibiting tumor cell proliferation in vitro” value ([3]; compared with inhibition in vivo) is given as “much less active” and the “half-maximal inhibition of vascular endothelial cell proliferation at lower concentration than tumor cell proliferation” value ([3]; endothelial vs tumor cell proliferation) is given as 4 logs.
With `C=C1C(=O)O[C@@H]2[C@H]3C(C)=CC[C@@]34O[C@@]4(C)CC[C@@H]12` [Arglabin] the “% Inhibition (ability to inhibit angiogenesis)” value (“% Inhibition” for short) [4] was 22.72% and the “% Weight Loss” value [5] was 2.69%.
For `C=C1C(=O)OC2C1CCC(=C)C1CC3OC3(C)C12` (stereo not drawn) [Astaphiatin], the “% Inhibition” value [4] was 33.56% and the “% Weight Loss” value [5] was 6.92%.
For `CC(=O)O[C@@H]1/C=C/[C@](C)(O)C[C@@H](C)C/C=C/[C@H]2[C@@H]3O[C@]3(C)[C@@H](C)[C@H]3[C@H](Cc4ccccc4)NC(=O)[C@@]312` [Epoxycytochalasin-H], the “% Inhibition” value [4] was 27.35% and the “% Weight Loss” value [5] was 2.46%.
In the case of `CC1C2C(Cc3ccccc3)NC(=O)C2(O)C(CO)C2OC12C` (stereo not drawn) [Ozonolyzed Cytochalasin-E], the “% Inhibition” value [4] was 20.00% and the “% Weight Loss” value [5] was 4.00%.
With `C=C1C(C)C2C(Cc3ccccc3)NC(=O)C23OC(=O)/C=C/C(=O)CCCC(C)C/C=C/C3C1O` (stereo not drawn) [cytochalasin A] the “less active (inhibition of endothelial cell proliferation)” value [6] was 1000 fold.
In the case of `CC1C/C=C/C2C3OC3(C)C(C)C3C(Cc4ccccc4)NC(=O)C23OC(=O)O/C=C/C(C)(O)C1=O` [cytochalasin E, (6S,7S,16R,18R)-6,7-epoxy-18-hydroxy-16-methyl-10-phenyl-21 ,23-dioxa-[13]cytochalasa-13(E), 19(E)-diene-1,17,22-trione], the “inhibition of bFGF driven corneal neovascularization” value [7] was 50%, the inhibited tumor growth (Lewis lung carcinoma [8]) was 74% and the “% Inhibition” value [4] was 45.00%. The “% Weight Loss” value [5] was 0.00%, the IC50 ([6]; Bos taurus, Endothelial cell, bFGF 1 ng/ml, 72 hours) was 0.002 ng/mL (≈ 0.00404 nM) and the “Inhibition of Tumor Growth, T/C” value (Lewis lung carcinoma [9]) was 0.28.
For `C=C1C(C)C2C(Cc3ccccc3)NC(=O)C23C(OC(C)=O)/C=C/C(C)(O)CC(C)C/C=C/C3C1O` (stereo not drawn) [cytochalasin H], the disaggregation of cells (cells [10]) is listed as “produces disaggregation of cells” and the “less active (inhibition of endothelial cell proliferation)” value [6] is listed as 1000 fold.
With `C[C@H]1C/C=C/[C@H]2[C@@H]3O[C@]3(C)[C@@H](C)[C@@H]3[C@H](Cc4ccccc4)NC(=O)[C@]32[C@H](O)/C=C/[C@](C)(O)C1` [epoxycytochalasin J] the “effectiveness as inhibitor of bovine capillary endothelial cell proliferation” value [11] was “even more effective inhibitor”.
For “bFGF: basic fibroblast growth factor (bFGF)”, the “mitogen for the tumor cells in vitro” value (tumors cells) is given as “not a mitogen”.
For interferon alpha, the “inhibition of tumor-induced angiogenesis” value [12] is given as “inhibit tumor-induced angiogenesis”.
